Our source for the Km values is publication PMC12122756, “Versatile biocatalyst: lipase from Streptomyces gobitricini for ester synthesis and detergent innovation” (Frontiers in Bioengineering and Biotechnology, 2025).

This experiment concerns T1, LipS.g.
T1 construct: native extracellular enzyme purified from culture supernatant (heat, ammonium sulfate, Sephadex S-200); about 50 kDa SDS-PAGE, 53,262 Da MALDI-TOF
As to the kind of experiment: pH-stat titrimetry, Lineweaver-Burk. The settings on record: pH 9.0, 50°C, triglyceride emulsion, apparent Km. It is filed as biochemical, Streptomyces gobitricini. The text has this:
pH-stat titrimetry, Lineweaver-Burk on LipS.g

Molecules are shown by their SMILES. Where two headings read alike, the source gives them in different places.

Consider `CCCC(=O)OCC(COC(=O)CCC)OC(=O)CCC` [TC4, Tributyrin], for which the Km (read-out: Lipase activity (%) / TC4) stood at 26.7 ± 0.063 mM.

As to `CCCCCCCC(=O)OCC(COC(=O)CCCCCCC)OC(=O)CCCCCCC` [TC8, trioctanoin], under “read-out: TC8”, the Km stood at 13.22 ± 0.106 mM.

For `CCCCCCCC/C=C\CCCCCCCC(=O)OCC(COC(=O)CCCCCCC/C=C\CCCCCCCC)OC(=O)CCCCCCC/C=C\CCCCCCCC` [TC18, triolein], for the setting “read-out: TC18”, the Km amounted to 6.45 ± 0.289 mM.
